“And” between values parts separate entries of the source, which are not always exact repeats. Equal values may be shown once. “Also recorded” adds a separate entry of the source.
Legend:
membrane-bound rMpAOX [1] = target: T1, membrane-bound rMpAOX (Moniliophthora perniciosa, UniProt A8QJP8); test: Membrane-bound rMpAOX activity with putative activators (O2 uptake, oxygraph; dose-response); format: biochemical; details: for Increase of membrane-bound rMpAOX oxygen uptake: 1 mM activator; for Fold-change in membrane-bound rMpAOX O2 uptake: 1 mM each, single independent measurements (Fig1a); for EC50: membrane-bound rMpAOX, 4-parameter sigmoid fit, read-out: EC50 of rMpAOX activation;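 on Fractional velocity, %: 100% is the maximal rate reached in the activator titration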
T1 sequence (A8QJP8 entry or part of it): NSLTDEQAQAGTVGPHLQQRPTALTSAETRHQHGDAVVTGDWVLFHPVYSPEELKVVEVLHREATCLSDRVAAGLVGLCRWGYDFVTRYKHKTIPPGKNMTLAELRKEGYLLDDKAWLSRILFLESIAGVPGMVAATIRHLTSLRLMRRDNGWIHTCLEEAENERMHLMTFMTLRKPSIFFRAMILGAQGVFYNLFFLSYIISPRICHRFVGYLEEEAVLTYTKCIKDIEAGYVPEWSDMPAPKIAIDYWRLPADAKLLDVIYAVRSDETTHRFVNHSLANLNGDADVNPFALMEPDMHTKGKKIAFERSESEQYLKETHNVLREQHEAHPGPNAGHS
Procedure: (§1) E. coli membrane preparation was performed as described with minor modifications. […] The cells were disrupted using two passes at […] through a pre-cooled Constant cell disruption system (Constant Systems Ltd). The lysate was centrifuged for 15 min at 16,000 rcf, and the pelleted unbroken cells and large cell debris were discarded. The supernatant was centrifuged for 90 min at 200,000 rcf to collect the fragmented membranes.
(§2) Respiration rates were recorded before and after the addition of putative AOX activators, such as 5′-ADP, 5′-AMP, 5′-GDP, 5′-GMP, glyoxylate, oxaloacetate, pyruvate or succinate (1 mM each unless stated otherwise). […] Data were acquired with the Multiskan FC Microplate Photometer (ThermoFisher). […] Absorbance readings were taken periodically and a blank reactions (substrate without enzyme) were included in every assay and were used to determine and subtract the autoxidation rate (background). Proteoliposomes were assayed as described for the E. coli membrane fraction except that no KCN was included and 0.5 µL of the prep (~50 ng rMpAOX) were added into the reaction. When tested, inhibitors were preincubated with the enzyme in reaction buffer for 2–5 min before starting the reaction by the addition of substrate. The path length (i.e., the height of the reaction medium inside the well) was calculated based on the reaction volume and the well cross-section area informed by the supplier. GraphPad Prism 7.0 (GraphPad Software Inc.) was used for function fitting.

membrane-bound rMpAOX [2] = target: T1, membrane-bound rMpAOX; test: Dose-response assay of inhibitors with membrane-bound, GMP-activated rMpAOX (NADH oxidation); format: biochemical; details: for IC50: membrane-bound, GMP-activated rMpAOX, read-out: IC50
Procedure: as §1, §2

[3] = log[I], M -5.60206 (Fig2b), 2.5 µM
[4] = log[I], M -6.60206 (Fig2b), 0.25 µM
[5] = log[I], M -7.60206 (Fig2b), 0.025 µM
[6] = log[I], M -7.60206 (Fig2b), read-out: Fractional velocity, %
[7] = log[I], M -8.60206 (Fig2b), 0.0025 µM
[8] = log[I], M -9.60206 (Fig2b), 0.00025 µM
[9] = log[I], M -9.60206 (Fig2b), read-out: Fractional velocity, %
[10] = log[I], M -10.6021 (Fig2b), 25 pM
[11] = log[I], M -10.6021 (Fig2b), read-out: Fractional velocity, %

| Structure (SMILES) | Increase of membrane-bound rMpAOX oxygen uptake (membrane-bound rMpAOX [1]) | Fold-change in membrane-bound rMpAOX O2 uptake (membrane-bound rMpAOX [1]) | Fractional velocity, % (membrane-bound rMpAOX [1]; [activator] 0.025 mM (Fig1b)) | Fractional velocity, % (membrane-bound rMpAOX [1]; [activator] 0.075 mM (Fig1b)) | Fractional velocity, % (membrane-bound rMpAOX [1]; [activator] 0.175 mM (Fig1b)) | Fractional velocity, % (membrane-bound rMpAOX [1]; [activator] 0.375 mM (Fig1b)) | Fractional velocity, % (membrane-bound rMpAOX [1]; [activator] 0.625 mM (Fig1b)) | EC50 (membrane-bound rMpAOX [1]) | Fractional velocity, % (membrane-bound rMpAOX [2]; [3]) | Fractional velocity, % (membrane-bound rMpAOX [2]; [4]) | Fractional velocity, % (membrane-bound rMpAOX [2]; [5]) | activity at 0.025 µM (membrane-bound rMpAOX [2]; [6]) | Fractional velocity, % (membrane-bound rMpAOX [2]; [7]) | Fractional velocity, % (membrane-bound rMpAOX [2]; [8]) | activity at 0.00025 µM (membrane-bound rMpAOX [2]; [9]) | Fractional velocity, % (membrane-bound rMpAOX [2]; [10]) | activity at 25 pM (membrane-bound rMpAOX [2]; [11]) | IC50 (membrane-bound rMpAOX [2]) | other results |
| --- | --- | --- | --- | --- | --- | --- | --- | --- | --- | --- | --- | --- | --- | --- | --- | --- | --- | --- | --- |
| Nc1ncnc2c1ncn2[C@@H]1O[C@H](COP(=O)(O)OP(=O)(O)O)[C@@H](O)[C@H]1O [ADP, 5′-ADP] | 4.5 times | 5 and 3.654 and 4.737 | 29.9% and 27.8% | 31.9% and 29.4% | 33.7% and 32.1% | 36.2% and 33.2% | 46.5% and 35.2% | ~6500 µM |  |  |  |  |  |  |  |  |  |  | Fractional velocity, % (membrane-bound rMpAOX [1]; [activator] 1.625 mM (Fig1b)): 64.4% and 58.2%; Fractional velocity, % (membrane-bound rMpAOX [1]; [activator] 3.625 mM (Fig1b)): 97.7% and 79.7%; Fractional velocity, % (membrane-bound rMpAOX [1]; [activator] 6.125 mM (Fig1b)): 128.8% and 99.5% |
| C/C(=C\Cc1c(O)c(Cl)c(C)c(C=O)c1O)CC/C=C(\C)[C@@H]1CC(=O)C(C)(C)O1 [AF, ascofuranone] |  |  |  |  |  |  |  |  | 3.068% and 1.958% and 7.541% | 2.9011% and 3.314% and 8.873% | 31.9402% and 19.7329% | 20.3% | 81.2456% and 95.1772% and 65.5719% | 94.8574% and 87.6342% | 88% | 94.1707% and 88.3377% | 93.1% | 0.0088 µM | Fractional velocity, % (membrane-bound rMpAOX [2]; log[I], M -4.60206 (Fig2b), 25 µM): 3.958% and 2.609% and 7.671% |
| Nc1ncnc2c1ncn2[C@@H]1O[C@H](COP(=O)(O)O)[C@@H](O)[C@H]1O [AMP, 5′-AMP] | 8.1 times | 7.569 and 7.49 and 9.2495 | 22.2% and 18.4% | 33.8% and 27.9% | 53.8% and 45.3% | 81.6% and 66.1% | 102% and 87.9% | 918 µM and 910 µM |  |  |  |  |  |  |  |  |  |  | Fractional velocity, % (membrane-bound rMpAOX [1]; [activator] 1.125 mM (Fig1b)): 134.8% and 120.3%; Fractional velocity, % (membrane-bound rMpAOX [1]; [activator] 2.125 mM (Fig1b)): 172.4% and 157.6%; Fractional velocity, % (membrane-bound rMpAOX [1]; [activator] 4.125 mM (Fig1b)): 201.8% and 188.2%; Fractional velocity, % (membrane-bound rMpAOX [1]; [activator] 6.625 mM (Fig1b)): 199.8% |
| CC(C)=CCc1c(O)c(Cl)c(C)c(C=O)c1O [CD, colletochlorin D] |  |  |  |  |  |  |  |  | 6.725% and 4.7683% and 12.1201% | 26.8171% and 38.1389% | 83.3186% and 82.5195% | 81.9% | 98.2807% and 91.2399% | 94.0253% and 92.2465% | 98% | 93.9344% and 89.9529% | 94.5% | 0.115 µM | activity at 0.25 µM (membrane-bound rMpAOX [2]; log[I], M -6.60206 (Fig2b), read-out: Fractional velocity, %): 28%; activity at 0.0025 µM (membrane-bound rMpAOX [2]; log[I], M -8.60206 (Fig2b), read-out: Fractional velocity, %): 95.8% |
| Nc1nc2c(ncn2[C@@H]2O[C@H](COP(=O)(O)OP(=O)(O)O)[C@@H](O)[C@H]2O)c(=O)[nH]1 [GDP, 5′-GDP] | did not have any noticeable effect; also recorded: no effect | 1.198 and 1.036 and 1.118 |  |  |  |  |  |  |  |  |  |  |  |  |  |  |  |  | Increase of rMpAOX basal rate (membrane-bound rMpAOX [1]; 6.5 mM): 1.5 times |
| O=CC(=O)O [GLYOX, glyoxylate] |  | 0.6271 and 0.9309 and 0.7633 |  |  |  |  |  |  |  |  |  |  |  |  |  |  |  |  |  |

— PMC7248098, “Biochemical characterization and inhibition of the alternative oxidase enzyme from the fungal phytopathogen Moniliophthora perniciosa” (Communications Biology, 2020)
